# Test results taken from ChEMBL document CHEMBL5154944, “Discovery of Aryloxyphenyl-Heptapeptide Hybrids as Potent and Selective Matrix Metalloproteinase-2 Inhibitors for the Treatment of Idiopathic Pulmonary Fibrosis” (J Med Chem, 2022).
# Active and inactive are the calls of the source. The rule behind the calls is not given here. Non-standard residues stand in square brackets, D forms with d. Residues, ends and D or L forms follow the SMILES beside them. *: point of attachment. Benzoyl(4-OPh(4-CONH2)) = NC(=O)c1ccc(Oc2ccc(C(=O)*)cc2)cc1; Benzenesulfonyl(4-OPh) = O=S(=O)(c1ccc(Oc2ccccc2)cc1)*; NMeI = CC[C@H](C)[C@H](NC)C(=O)O; NMeE = CN[C@@H](CCC(=O)O)C(=O)O; β3hP = O=C(O)C[C@@H]1CCCN1; Dab = NCC[C@H](N)C(=O)O; Ava = NCCCCC(=O)O; GABA = NCCCC(=O)O
# How the values were obtained:
# [1] = Solubility of the compound in phosphate buffer at pH 9 by HPLC analysis; type: physicochemical
# [2] = Solubility of the compound in acetate buffer at pH 4.0 by HPLC analysis; type: physicochemical
# [3] = Solubility of the compound in phosphate buffer at pH 7.4 by HPLC analysis; type: physicochemical
# [4] = Clearance in fasted Sprague-Dawley rat at 1 mg/kg, iv by LC-MS/MS analysis; type: ADME, organism-based; details: in vivo
# [5] = Metabolic stability in rat hepatocytes assessed as parent compound remaining incubated for 1 hr by LC-MS/MS; type: ADME, cell-based, Hepatocyte; details: read-out: Stability
# [6] = Volume of distribution at steady state in fasted Sprague-Dawley rat at 1 mg/kg, iv by LC-MS/MS analysis; type: ADME, organism-based; details: in vivo, read-out: Vdss
# [7] = Half life in fasted Sprague-Dawley rat at 1 mg/kg, iv by LC-MS/MS analysis; type: ADME, organism-based; details: in vivo
# [8] = Chemical stability of the compound in acetate buffer at pH 4.0 assessed as residual rate incubated for 2 weeks by HPLC analysis; type: physicochemical; details: read-out: Stability
# [9] = target: T1, Interstitial collagenase (Homo sapiens, UniProt P03956); test: Inhibition of recombinant human MMP1 using MOCAc-Lys-Pro-Leu-Gly-Leu-A2pr(Dnp)-Ala-Arg-NH2 as substrate preincubated for 15 mins followed by substrate addition by fluroscence based assay
# T1 sequence (P03956 whole entry): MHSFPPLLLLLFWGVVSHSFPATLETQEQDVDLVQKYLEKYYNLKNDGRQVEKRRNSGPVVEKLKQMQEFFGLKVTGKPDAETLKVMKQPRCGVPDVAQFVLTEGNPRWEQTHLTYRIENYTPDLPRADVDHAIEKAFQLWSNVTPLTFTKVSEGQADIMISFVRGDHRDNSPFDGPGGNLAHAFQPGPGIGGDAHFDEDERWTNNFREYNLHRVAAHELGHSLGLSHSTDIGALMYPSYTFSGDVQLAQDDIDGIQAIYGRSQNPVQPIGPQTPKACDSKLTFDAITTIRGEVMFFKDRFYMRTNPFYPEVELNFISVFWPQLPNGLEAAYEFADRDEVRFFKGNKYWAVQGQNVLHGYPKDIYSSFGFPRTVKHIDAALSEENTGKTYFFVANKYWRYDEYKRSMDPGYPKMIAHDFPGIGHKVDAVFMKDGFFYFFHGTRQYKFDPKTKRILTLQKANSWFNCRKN
# [10] = target: Stromelysin-1 (Homo sapiens, UniProt P08254); test: Inhibition of recombinant human MMP3 using MOCAc-Lys-Pro-Leu-Gly-Leu-A2pr(Dnp)-[…] as substrate preincubated for 15 mins followed by substrate addition by fluroscence based assay
# Chain of Stromelysin-1 (P08254 whole entry): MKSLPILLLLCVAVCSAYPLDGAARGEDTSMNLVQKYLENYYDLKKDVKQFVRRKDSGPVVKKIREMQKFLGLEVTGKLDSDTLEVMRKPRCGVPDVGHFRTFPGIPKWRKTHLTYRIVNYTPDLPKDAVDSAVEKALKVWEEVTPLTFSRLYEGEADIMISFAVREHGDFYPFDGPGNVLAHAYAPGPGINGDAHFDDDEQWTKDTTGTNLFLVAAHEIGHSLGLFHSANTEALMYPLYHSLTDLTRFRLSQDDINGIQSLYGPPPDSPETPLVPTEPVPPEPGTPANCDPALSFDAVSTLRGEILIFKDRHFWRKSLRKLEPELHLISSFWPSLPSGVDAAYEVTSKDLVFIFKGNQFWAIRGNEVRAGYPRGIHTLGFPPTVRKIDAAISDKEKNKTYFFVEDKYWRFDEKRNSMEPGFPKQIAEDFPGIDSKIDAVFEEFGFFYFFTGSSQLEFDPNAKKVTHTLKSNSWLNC
# [11] = target: T2, Matrilysin (Homo sapiens, UniProt P09237)
# T2 sequence (P09237 whole entry): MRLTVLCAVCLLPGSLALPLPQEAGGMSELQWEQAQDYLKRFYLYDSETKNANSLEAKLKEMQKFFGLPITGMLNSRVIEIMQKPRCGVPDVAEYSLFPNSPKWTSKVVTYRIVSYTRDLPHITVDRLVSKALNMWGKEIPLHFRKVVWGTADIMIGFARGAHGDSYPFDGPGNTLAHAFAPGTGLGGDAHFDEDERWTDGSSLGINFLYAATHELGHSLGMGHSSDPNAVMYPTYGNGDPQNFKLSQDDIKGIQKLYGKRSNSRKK
# [12] = target: Neutrophil collagenase (Homo sapiens, UniProt P22894)
# Chain of Neutrophil collagenase (P22894 whole entry): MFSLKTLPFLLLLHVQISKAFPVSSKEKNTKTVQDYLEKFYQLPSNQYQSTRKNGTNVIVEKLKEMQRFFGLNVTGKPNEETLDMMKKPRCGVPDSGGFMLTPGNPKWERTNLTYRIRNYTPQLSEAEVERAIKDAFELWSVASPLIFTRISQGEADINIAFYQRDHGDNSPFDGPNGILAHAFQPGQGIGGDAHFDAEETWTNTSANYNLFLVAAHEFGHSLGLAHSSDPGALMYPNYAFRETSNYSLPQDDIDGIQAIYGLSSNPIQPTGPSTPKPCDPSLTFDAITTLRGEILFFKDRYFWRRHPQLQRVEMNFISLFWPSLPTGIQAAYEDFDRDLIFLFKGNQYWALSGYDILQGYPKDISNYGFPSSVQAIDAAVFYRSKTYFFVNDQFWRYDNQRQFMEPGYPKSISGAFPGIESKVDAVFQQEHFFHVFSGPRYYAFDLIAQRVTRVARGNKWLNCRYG
# [13] = target: Matrix metalloproteinase-9 (Homo sapiens, UniProt P14780)
# Chain of Matrix metalloproteinase-9 (P14780 whole entry): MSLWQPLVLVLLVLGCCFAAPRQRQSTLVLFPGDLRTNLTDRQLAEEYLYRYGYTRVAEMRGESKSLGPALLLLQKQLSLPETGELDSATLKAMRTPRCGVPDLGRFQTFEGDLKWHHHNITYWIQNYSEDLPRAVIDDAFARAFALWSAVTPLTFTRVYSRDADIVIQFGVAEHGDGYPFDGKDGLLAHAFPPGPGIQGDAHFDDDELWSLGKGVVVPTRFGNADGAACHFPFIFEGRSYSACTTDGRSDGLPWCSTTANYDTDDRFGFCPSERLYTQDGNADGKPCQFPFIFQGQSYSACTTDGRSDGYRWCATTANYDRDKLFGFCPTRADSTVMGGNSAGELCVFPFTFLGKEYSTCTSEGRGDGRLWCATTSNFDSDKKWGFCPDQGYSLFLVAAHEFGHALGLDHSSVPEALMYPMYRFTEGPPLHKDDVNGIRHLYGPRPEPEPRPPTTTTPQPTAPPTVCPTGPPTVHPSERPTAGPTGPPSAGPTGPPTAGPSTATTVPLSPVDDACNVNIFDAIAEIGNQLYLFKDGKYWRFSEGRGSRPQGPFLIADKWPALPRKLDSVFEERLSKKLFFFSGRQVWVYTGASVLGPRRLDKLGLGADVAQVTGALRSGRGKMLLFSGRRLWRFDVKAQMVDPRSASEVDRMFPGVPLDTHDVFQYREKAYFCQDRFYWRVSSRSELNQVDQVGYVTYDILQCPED
# [14] = target: Matrix metalloproteinase-14 (Homo sapiens, UniProt P50281); test: Inhibition of recombinant human MMP14 using MOCAc-Lys-Pro-Leu-Gly-Leu-A2pr(Dnp)-Ala-Arg-NH2 as substrate preincubated for 15 mins followed by substrate addition by fluroscence based assay
# [15] = target: CYP1A2 (Homo sapiens, UniProt P05177); test: Inhibition of CYP1A2 in human liver microsomes at 10 uM using phenacetin as substrate for 5 mins followed by NADPH addition and measured after 10 mins by LC/MS/MS analysis relative to control; type: ADME, Microsome; details: probe phenacetin, time 15 min
# [16] = target: CYP2C19 (Homo sapiens, UniProt P33261); test: Inhibition of CYP2C19 in human liver microsomes at 10 uM using mephenytoin as substrate preincubated for 5 mins followed by addition of NADPH measured after 10 mins by LC/MS/MS analysis relative to control; type: ADME, Microsome; details: probe mephenytoin, time 15 min
# Chain of CYP2C19 (P33261 whole entry): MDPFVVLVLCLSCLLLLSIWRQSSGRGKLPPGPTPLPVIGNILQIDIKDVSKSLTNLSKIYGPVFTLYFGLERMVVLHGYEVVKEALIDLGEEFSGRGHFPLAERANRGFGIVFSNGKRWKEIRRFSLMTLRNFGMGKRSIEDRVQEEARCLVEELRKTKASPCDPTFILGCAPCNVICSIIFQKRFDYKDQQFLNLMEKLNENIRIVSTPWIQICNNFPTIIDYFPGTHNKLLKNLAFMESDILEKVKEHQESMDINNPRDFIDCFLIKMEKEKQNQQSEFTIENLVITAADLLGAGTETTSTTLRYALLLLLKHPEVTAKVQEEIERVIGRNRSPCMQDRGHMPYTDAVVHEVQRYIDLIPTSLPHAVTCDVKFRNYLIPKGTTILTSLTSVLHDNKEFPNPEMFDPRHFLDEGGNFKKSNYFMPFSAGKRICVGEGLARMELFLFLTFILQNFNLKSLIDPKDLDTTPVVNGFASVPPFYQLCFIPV
# [17] = target: CYP2D6 (Homo sapiens, UniProt P10635); test: Inhibition of CYP2D6 in human liver microsomes at 10 uM using bufuralol as substrate preincubated for 5 mins followed by addition of NADPH measured after 10 mins by LC/MS/MS analysis relative to control; type: ADME, Microsome; details: probe bufuralol, time 15 min
# Chain of CYP2D6 (P10635 whole entry): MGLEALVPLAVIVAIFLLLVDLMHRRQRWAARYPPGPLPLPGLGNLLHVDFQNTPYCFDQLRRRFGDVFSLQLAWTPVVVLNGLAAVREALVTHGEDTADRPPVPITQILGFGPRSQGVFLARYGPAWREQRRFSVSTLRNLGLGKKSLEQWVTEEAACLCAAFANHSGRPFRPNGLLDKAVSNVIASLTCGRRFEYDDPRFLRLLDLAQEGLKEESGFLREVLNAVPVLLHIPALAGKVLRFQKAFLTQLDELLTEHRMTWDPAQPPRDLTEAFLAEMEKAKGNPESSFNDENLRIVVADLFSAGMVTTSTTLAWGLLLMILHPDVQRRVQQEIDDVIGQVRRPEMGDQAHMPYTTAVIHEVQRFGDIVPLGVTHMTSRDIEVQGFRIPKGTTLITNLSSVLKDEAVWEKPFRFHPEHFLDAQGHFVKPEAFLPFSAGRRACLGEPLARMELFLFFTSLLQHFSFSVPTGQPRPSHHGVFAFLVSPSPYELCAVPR
# [18] = target: CYP2C9 (Homo sapiens, UniProt P11712); test: Inhibition of CYP2C9 in human liver microsomes at 10 uM using diclofenac as substrate preincubated for 5 mins followed by addition of NADPH measured after 5 mins by LC/MS/MS analysis relative to control; type: ADME, Microsome; details: probe diclofenac, time 10 min
# [19] = target: CYP3A4 (Homo sapiens, UniProt P08684); test: Inhibition of CYP3A4 in human liver microsomes at 10 uM using midazolam as substrate preincubated for 5 mins followed by addition of NADPH measured after 5 mins by LC/MS/MS analysis relative to control; type: ADME, Microsome; details: probe midazolam
# Chain of CYP3A4 (P08684 whole entry): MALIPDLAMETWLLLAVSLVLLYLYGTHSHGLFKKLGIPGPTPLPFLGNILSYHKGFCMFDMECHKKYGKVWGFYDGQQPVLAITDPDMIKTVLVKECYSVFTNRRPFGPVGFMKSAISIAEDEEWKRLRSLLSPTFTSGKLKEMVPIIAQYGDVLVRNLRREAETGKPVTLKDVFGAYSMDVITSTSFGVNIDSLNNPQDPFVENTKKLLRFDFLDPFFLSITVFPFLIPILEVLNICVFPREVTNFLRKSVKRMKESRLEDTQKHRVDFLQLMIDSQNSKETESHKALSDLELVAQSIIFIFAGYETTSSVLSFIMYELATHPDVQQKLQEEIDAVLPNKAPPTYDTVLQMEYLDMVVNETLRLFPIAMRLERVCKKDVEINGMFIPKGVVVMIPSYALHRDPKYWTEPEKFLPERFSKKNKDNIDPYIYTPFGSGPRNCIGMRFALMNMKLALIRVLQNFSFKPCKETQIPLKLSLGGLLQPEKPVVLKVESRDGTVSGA
# [20] = target: Voltage-gated inwardly rectifying potassium channel KCNH2 (Homo sapiens, UniProt Q12809); test: Inhibition of human ERG expressed in CHO cells by Qpatch-clamp method; type: toxicity, cell-based
# Chain of Voltage-gated inwardly rectifying potassium channel KCNH2 (Q12809 whole entry): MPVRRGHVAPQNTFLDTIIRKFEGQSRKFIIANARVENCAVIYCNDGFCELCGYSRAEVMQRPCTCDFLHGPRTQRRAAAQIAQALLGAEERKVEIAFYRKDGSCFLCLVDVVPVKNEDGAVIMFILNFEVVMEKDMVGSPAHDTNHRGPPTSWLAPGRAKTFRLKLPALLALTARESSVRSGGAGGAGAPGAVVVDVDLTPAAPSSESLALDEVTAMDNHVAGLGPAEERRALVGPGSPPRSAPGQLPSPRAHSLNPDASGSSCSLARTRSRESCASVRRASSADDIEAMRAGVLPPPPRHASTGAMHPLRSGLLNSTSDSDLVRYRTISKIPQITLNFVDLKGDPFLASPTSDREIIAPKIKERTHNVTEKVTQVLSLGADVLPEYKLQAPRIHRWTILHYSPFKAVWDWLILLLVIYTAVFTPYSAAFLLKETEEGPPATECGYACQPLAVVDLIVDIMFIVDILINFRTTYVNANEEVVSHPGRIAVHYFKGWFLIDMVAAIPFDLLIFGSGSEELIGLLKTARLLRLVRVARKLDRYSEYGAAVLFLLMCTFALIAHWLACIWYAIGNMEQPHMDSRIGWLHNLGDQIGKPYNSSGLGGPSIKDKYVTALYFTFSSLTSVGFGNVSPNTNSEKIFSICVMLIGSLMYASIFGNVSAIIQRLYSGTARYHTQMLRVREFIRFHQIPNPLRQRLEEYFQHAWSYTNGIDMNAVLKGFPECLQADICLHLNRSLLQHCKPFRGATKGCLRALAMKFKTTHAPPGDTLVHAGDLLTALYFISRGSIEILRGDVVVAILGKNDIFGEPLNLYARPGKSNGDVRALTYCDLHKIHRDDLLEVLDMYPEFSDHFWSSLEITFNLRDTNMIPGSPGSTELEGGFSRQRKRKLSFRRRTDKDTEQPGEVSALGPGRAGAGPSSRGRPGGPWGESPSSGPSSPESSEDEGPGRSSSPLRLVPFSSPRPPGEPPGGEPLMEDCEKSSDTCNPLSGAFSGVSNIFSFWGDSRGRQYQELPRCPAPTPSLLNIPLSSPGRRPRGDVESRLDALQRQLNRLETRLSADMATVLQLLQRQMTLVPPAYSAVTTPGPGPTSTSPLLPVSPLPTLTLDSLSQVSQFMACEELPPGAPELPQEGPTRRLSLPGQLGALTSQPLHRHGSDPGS
# [21] = test system: HepG2; test: Cytotoxicity against human HepG2 cells assessed as reduction in cell viability at 10 uM after 48 hrs by CCK8 assay; type: functional
# [22] = test system: HepG2; test: Cytotoxicity against human HepG2 cells assessed as reduction in cell viability at 50 uM after 48 hrs by CCK8 assay; type: functional
# [23] = Metabolic stability in human hepatocytes assessed as parent compound remaining measured after 1 hr by LC-MS/MS analysis; type: ADME, cell-based, Hepatocyte; details: read-out: Stability
# [24] = Metabolic stability in human serum assessed as parent compound remaining incubated for 6 hrs by LC-MS/MS analysis; type: ADME, cell-free; details: read-out: Stability
# [25] = Protein binding in human serum assessed as free fraction at 10 ug/ml incubated for 6 hrs by equilibrium dialysis based LC-MS/MS assay; type: ADME, cell-free; details: at 10 µg/mL
# [26] = Protein binding in mouse serum assessed as free fraction at 10 ug/ml incubated for 6 hrs by equilibrium dialysis based LC-MS/MS assay; type: ADME, cell-free; details: at 10 µg/mL
# [27] = test system: Mus musculus; test: Antifibrotic activity in C57BL/6N mouse model of bleomycin-induced idiopathic pulmonary fibrosis assessed as reduction of total collagen content at 0.03 to 1 mg/kg/day, sc via osmotic pumps dosed for 14 days; type: functional, organism-based; details: dose 0.03-1 mg/kg/day, time 14.0 day
# [28] = test system: Mus musculus; test: Antifibrotic activity in C57BL/6N mouse model of bleomycin-induced idiopathic pulmonary fibrosis assessed as reduction of total collagen content at 0.03 mg/kg/day, sc via osmotic pumps dosed for 14 days; type: functional, organism-based; details: time 14.0 day
# [29] = Free drug concentration in C57BL/6N mouse plasma at 0.03 mg/kg/day, sc via osmotic pumps dosed for 14 days; type: ADME, organism-based; details: in vivo, 336 h, time 14 day
# [30] = physchem; details: buffer, pH 7.4
# [31] = physchem; details: phosphate buffer, pH 7.4
# [32] = physchem; details: phosphate buffer, pH 9
# [33] = species: Homo sapiens; test: Selectivity ratio of IC50 for recombinant human MMP12 to IC50 for recombinant human MMP2
# [34] = target: MMP-1/MMP-2 (Homo sapiens) (UniProt P08253+P03956); test: Selectivity ratio of IC50 for recombinant human MMP1 to IC50 for recombinant human MMP2; type: protein assay
# Chain of MMP-1/MMP-2 (Homo sapiens) (P08253 whole entry, looked up, one chain of several): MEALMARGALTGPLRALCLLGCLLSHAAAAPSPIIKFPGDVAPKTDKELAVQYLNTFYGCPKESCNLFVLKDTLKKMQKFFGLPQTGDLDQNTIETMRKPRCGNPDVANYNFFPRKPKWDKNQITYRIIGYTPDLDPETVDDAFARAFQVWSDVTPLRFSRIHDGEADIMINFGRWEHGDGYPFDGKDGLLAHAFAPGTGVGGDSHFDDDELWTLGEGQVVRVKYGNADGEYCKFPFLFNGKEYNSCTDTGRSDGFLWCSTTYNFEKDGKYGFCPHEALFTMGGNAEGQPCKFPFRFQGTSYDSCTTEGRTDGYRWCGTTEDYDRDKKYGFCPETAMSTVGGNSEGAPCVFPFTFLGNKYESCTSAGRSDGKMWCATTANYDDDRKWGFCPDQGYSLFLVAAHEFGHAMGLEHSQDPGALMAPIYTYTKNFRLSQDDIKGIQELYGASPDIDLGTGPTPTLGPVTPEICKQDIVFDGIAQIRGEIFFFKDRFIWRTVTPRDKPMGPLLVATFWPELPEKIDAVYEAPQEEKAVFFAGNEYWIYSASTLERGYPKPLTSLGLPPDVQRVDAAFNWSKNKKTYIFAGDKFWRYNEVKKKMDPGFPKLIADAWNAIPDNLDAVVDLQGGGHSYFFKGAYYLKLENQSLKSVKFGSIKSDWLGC
# [35] = species: Homo sapiens; test: Selectivity ratio of IC50 for recombinant human MMP3 to IC50 for recombinant human MMP2
# [36] = species: Homo sapiens; test: Selectivity ratio of IC50 for recombinant human MMP7 to IC50 for recombinant human MMP2
# [37] = species: Homo sapiens; test: Selectivity ratio of IC50 for recombinant human MMP8 to IC50 for recombinant human MMP2
# [38] = target: MMP-2/MMP-9 (Homo sapiens) (UniProt P08253+P14780); test: Selectivity ratio of IC50 for recombinant human MMP9 to IC50 for recombinant human MMP2; type: protein assay
# [39] = target: MMP-2/MMP-14 (Homo sapiens) (UniProt P50281+P08253); test: Selectivity ratio of IC50 for recombinant human MMP14 to IC50 for recombinant human MMP2; type: protein assay
# [40] = Clearance in fasted Sprague-Dawley rat at 0.4 mg/kg, iv by LC-MS/MS analysis; type: ADME, organism-based; details: in vivo
# [41] = Volume of distribution at steady state in fasted Sprague-Dawley rat at 0.4 mg/kg, iv by LC-MS/MS analysis; type: ADME, organism-based; details: in vivo, read-out: Vdss
# [42] = Half life in fasted Sprague-Dawley rat at 0.4 mg/kg, iv by LC-MS/MS analysis; type: ADME, organism-based; details: in vivo
# [43] = target: 72 kDa type IV collagenase (Homo sapiens, UniProt P08253)
# Chain of 72 kDa type IV collagenase (P08253 whole entry): as the sequence (P08253 whole entry, looked up, one chain of several) above
# [44] = target: Collagenase 3 (Homo sapiens, UniProt P45452)
smiles,measurement,setting,value
CC(C)C[C@H](NC(=O)[C@H](CCN)NC(=O)[C@H](CC(=O)O)NC(=O)[C@H](CCC(=O)O)NC(=O)CCCCNC(=O)c1ccc(Oc2ccc(C(N)=O)cc2)cc1)C(=O)N(C)[C@@H](CCC(=O)O)C(=O)N1CCC[C@H]1CC(N)=O ({Benzoyl(4-OPh(4-CONH2))-Ava}-ED[Dab]L[NMeE][β3hP]-NH2),solubility,[1],> 167 mg/mL
same,solubility,[2],> 18.2 mg/mL
same,solubility,[3],> 24.2 mg/mL
same,clearance,[4],11.7 mL/min/kg
same,"remaining at 1 h, 1 µM",[5],98.2%
same,Vd,[6],0.233 L/kg
same,half-life,[7],14 min
same,remaining at 336 h,[8],88%
same,IC50,[9],> 10000 nM
same,IC50,[10],> 10000 nM
same,IC50,[11],> 10000 nM
same,IC50,[12],3720 nM
same,IC50,[13],> 8510 nM
same,IC50,[14],2220 nM
same,"inhibition at […], 10 µM",[15],-4.2%
same,"inhibition at 10 min, 10 µM",[16],-9.1%
same,"inhibition at 10 min, 10 µM",[17],-2.5%
same,"inhibition at 5 min, 10 µM",[18],1.6%
same,"inhibition at 5 min, 10 µM",[19],-2.4%
same,IC50,[20],> 100000 nM
same,Activity,[21],1.1%
same,Activity,[22],-0.9%
same,remaining at 1 h,[23],101%
same,remaining at 6 h,[24],110%
same,"fraction unbound at 6 h, 10 ug/ml",[25],0.552
same,"fraction unbound at 6 h, 10 ug/ml",[26],0.518
same,Activity,[27],Active
same,Activity,[28],Active
same,Cp(f),[29],0.48 nM
same,logD,[30],-0.21
same,remaining at 336 h,[31],95.1%
same,remaining at 336 h,[32],95.4%
CC[C@H](C)[C@@H](C(=O)N1CCC[C@H]1CC(N)=O)N(C)C(=O)[C@H](CC(C)C)NC(=O)[C@H](C)NC(=O)[C@H](CC(=O)O)NC(=O)[C@H](CC(N)=O)NC(=O)CCCNS(=O)(=O)c1ccc(Oc2ccccc2)cc1 ({Benzenesulfonyl(4-OPh)-GABA}-NDAL[NMeI][β3hP]-NH2),Ratio IC50,[33],85
same,"remaining at 1 h, 1 µM",[5],68.4%
same,IC50,[9],> 10000 nM
same,IC50,[10],> 10000 nM
same,IC50,[11],2100 nM
same,IC50,[12],261 nM
same,IC50,[13],181 nM
same,IC50,[14],11 nM
same,Ratio IC50,[34],182000
same,Ratio IC50,[35],> 182000
same,Ratio IC50,[36],38100
same,Ratio IC50,[37],4740
same,Ratio IC50,[38],3290
same,Ratio IC50,[39],200
same,clearance,[40],74.5 mL/min/kg
same,Vd,[41],0.882 L/kg
same,half-life,[42],8 min
same,IC50,[43],0.055 nM
same,IC50,[44],21 nM
same,logD,[30],1.53
CC(C)C[C@H](NC(=O)[C@H](CCN)NC(=O)[C@H](CC(=O)O)NC(=O)[C@H](CC(N)=O)NC(=O)CCCNS(=O)(=O)c1ccc(Oc2ccccc2)cc1)C(=O)N(C)[C@@H](CCC(=O)O)C(=O)N1CCC[C@H]1CC(N)=O ({Benzenesulfonyl(4-OPh)-GABA}-ND[Dab]L[NMeE][β3hP]-NH2),Ratio IC50,[33],7240
same,"remaining at 1 h, 1 µM",[5],91.7%
same,IC50,[9],> 10000 nM
same,IC50,[10],> 10000 nM
same,IC50,[11],> 10000 nM
same,IC50,[12],5880 nM
same,IC50,[13],> 10000 nM
same,IC50,[14],526 nM
same,Ratio IC50,[34],> 147000
same,Ratio IC50,[35],> 147000
same,Ratio IC50,[36],> 147000
same,Ratio IC50,[37],86500
same,Ratio IC50,[38],> 147000
same,Ratio IC50,[39],7740
same,clearance,[40],20.2 mL/min/kg
same,Vd,[41],0.275 L/kg
same,half-life,[42],9 min
same,IC50,[43],0.068 nM
same,IC50,[44],364 nM
same,logD,[30],1.26
